According to patent US20230085307A1, “PYRIDAZINONE COMPOUND AND HERBICIDE” (NISSAN CHEMICAL CORPORATION, priority 2019, published 2023):

Columns and labels:
[1] = system: blackgrass; assay: Test Example 5: herbicidal effect by foliage application, plastic box (Table 20, symbol J); type: in vivo, blackgrass (Alopecurus myosuroides); details: foliage application, 320 g/ha
Outline: (§1)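 Plants sown in sterilized diluvial soil and grown 14 days in a greenhouse at 25° C to 30° C, then sprayed on the foliage with the compound's emulsion diluted in water to a predetermined herbicide amount. Injury to weeds and crops scored three weeks after application on a visual rating scale.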

[2] = system: false cleavers; assay: Test Example 5: herbicidal effect by foliage application, plastic box (Table 20, symbol Q); type: in vivo, false cleavers (Galium spurium); details: foliage application, 320 g/ha
Outline: as §1

[3] = system: lambsquarters; assay: Test Example 5: herbicidal effect by foliage application, plastic box (Table 20, symbol O); type: in vivo, lambsquarters (Chenopodium album); details: foliage application, 320 g/ha
Outline: as §1

[4] = system: persian speedwell; assay: Test Example 4: herbicidal effect by soil treatment (Table 19, symbol R); type: in vivo, Persian speedwell (Veronica persica); details: amount of applied herbicide 320 g/ha
Outline: (§2)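 Seeds were sown in sterilized diluvial soil and covered with about 1.5 cm of soil. An emulsion formulation diluted with water to a predetermined herbicide amount was sprayed evenly onto the soil surface. Plants grew in a greenhouse at 25° C. to 30° C., and the effect was scored three weeks after application using criteria from an earlier test.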

[5] = system: Japanese bulrush; assay: Test Example 2: herbicidal activity, application during weed generation under submerged conditions (Table 17, symbol B); type: in vivo, Japanese bulrush (Schoenoplectus juncoides); details: AAH 320 g/ha; application during weed generation, submerged conditions
Outline: (§3)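 3-wk visual-criteria score after one water-surface dose. Emulsion formulation, water-diluted to set rate; applied at 1–2 leaf stage; alluvial soil, 4 cm standing water; seeds co-sown; greenhouse 25–30° C.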

[6] = system: late watergrass; assay: Test Example 2: herbicidal activity, application during weed generation under submerged conditions (Table 17, symbol A); type: in vivo, late watergrass (Echinochloa oryzicola); details: AAH 320 g/ha; application during weed generation, submerged conditions
Outline: as §3

[7] = system: redroot pigweed; assay: Test Example 5: herbicidal effect by foliage application, plastic box (Table 20, symbol N); type: in vivo, redroot pigweed (Amaranthus retroflexus); details: foliage application, 320 g/ha
Outline: as §1

[8] = system: chickweed; assay: Test Example 5: herbicidal effect by foliage application, plastic box (Table 20, symbol P); type: in vivo, common chickweed (Stellaria media); details: foliage application, 320 g/ha
Outline: as §1

[9] = system: Chinese sprangletop; assay: Test Example 3: herbicidal effect by foliage application, Wagner pot (Table 18, symbol D); type: in vivo, chinese sprangletop (Leptochloa chinensis)
Outline: (§4)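 Plants were sown in alluvial soil held under 0.1–0.5 cm standing water and grown 14 days in a greenhouse at 25–30 °C. An emulsifiable formulation, water-diluted to the set dose, was then sprayed onto the foliage, and effects were scored three weeks later using previously defined criteria.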

[10] = system: oval-leafed pondweed; assay: Test Example 2: herbicidal activity, application during weed generation under submerged conditions (Table 17, symbol C); type: in vivo, oval-leafed pondweed (Monochoria vaginalis); details: AAH 320 g/ha; application during weed generation, submerged conditions
Outline: as §3

[11] = system: redroot pigweed; assay: Test Example 4: herbicidal effect by soil treatment (Table 19, symbol N); type: in vivo, redroot pigweed (Amaranthus retroflexus); details: amount of applied herbicide 320 g/ha
Outline: as §2

[12] = system: Italian ryegrass; assay: Test Example 4: herbicidal effect by soil treatment (Table 19, symbol K); type: in vivo, Italian ryegrass (Lolium multiflorum); details: amount of applied herbicide 320 g/ha
Outline: as §2

[13] = system: persian speedwell; assay: Test Example 5: herbicidal effect by foliage application, plastic box (Table 20, symbol R); type: in vivo, Persian speedwell (Veronica persica); details: foliage application, 320 g/ha
Outline: as §1

[14] = system: lambsquarters; assay: Test Example 4: herbicidal effect by soil treatment (Table 19, symbol O); type: in vivo, lambsquarters (Chenopodium album); details: amount of applied herbicide 320 g/ha
Outline: as §2

[15] = system: wild oat; assay: Test Example 5: herbicidal effect by foliage application, plastic box (Table 20, symbol I); type: in vivo, wild oat (Avena fatua); details: foliage application, 320 g/ha
Outline: as §1

[16] = system: velvetleaf; assay: Test Example 5: herbicidal effect by foliage application, plastic box (Table 20, symbol M); type: in vivo, velvetleaf (Abutilon theophrasti); details: foliage application, 320 g/ha
Outline: as §1

[17] = system: chickweed; assay: Test Example 4: herbicidal effect by soil treatment (Table 19, symbol P); type: in vivo, common chickweed (Stellaria media); details: amount of applied herbicide 320 g/ha
Outline: as §2

[18] = system: blackgrass; assay: Test Example 4: herbicidal effect by soil treatment (Table 19, symbol J); type: in vivo, blackgrass (Alopecurus myosuroides); details: amount of applied herbicide 320 g/ha
Outline: as §2

[19] = system: windgrass; assay: Test Example 5: herbicidal effect by foliage application, plastic box (Table 20, symbol L); type: in vivo, windgrass (Apera spica-venti); details: foliage application, 320 g/ha
Outline: as §1

[20] = system: rice flat sedge; assay: Test Example 3: herbicidal effect by foliage application, Wagner pot (Table 18, symbol E); type: in vivo, rice flat sedge (Cyperus iria)
Outline: as §4

[21] = system: windgrass; assay: Test Example 4: herbicidal effect by soil treatment (Table 19, symbol L); type: in vivo, windgrass (Apera spica-venti); details: amount of applied herbicide 320 g/ha
Outline: as §2

[22] = system: barnyard grass; assay: Test Example 3: herbicidal effect by foliage application, Wagner pot (Table 18, symbol H); type: in vivo, barnyard grass (Echinochloa crus-galli)
Outline: as §4

[23] = system: southern crabgrass; assay: Test Example 4: herbicidal effect by soil treatment (Table 19, symbol F); type: in vivo, southern crabgrass (Digitaria ciliaris); details: amount of applied herbicide 320 g/ha
Outline: as §2

[24] = system: green foxtail; assay: Test Example 5: herbicidal effect by foliage application, plastic box (Table 20, symbol G); type: in vivo, green foxtail (Setaria viridis); details: foliage application, 320 g/ha
Outline: as §1

[25] = system: wild oat; assay: Test Example 4: herbicidal effect by soil treatment (Table 19, symbol I); type: in vivo, wild oat (Avena fatua); details: amount of applied herbicide 320 g/ha
Outline: as §2

[26] = system: green foxtail; assay: Test Example 4: herbicidal effect by soil treatment (Table 19, symbol G); type: in vivo, green foxtail (Setaria viridis); details: amount of applied herbicide 320 g/ha
Outline: as §2

[27] = system: velvetleaf; assay: Test Example 4: herbicidal effect by soil treatment (Table 19, symbol M); type: in vivo, velvetleaf (Abutilon theophrasti); details: amount of applied herbicide 320 g/ha
Outline: as §2

[28] = system: barnyard grass; assay: Test Example 4: herbicidal effect by soil treatment (Table 19, symbol H); type: in vivo, barnyard grass (Echinochloa crus-galli); details: amount of applied herbicide 320 g/ha
Outline: as §2

[29] = system: false cleavers; assay: Test Example 4: herbicidal effect by soil treatment (Table 19, symbol Q); type: in vivo, false cleavers (Galium spurium); details: amount of applied herbicide 320 g/ha
Outline: as §2

[30] = system: southern crabgrass; assay: Test Example 5: herbicidal effect by foliage application, plastic box (Table 20, symbol F); type: in vivo, southern crabgrass (Digitaria ciliaris); details: foliage application, 320 g/ha
Outline: as §1

[31] = system: barnyard grass; assay: Test Example 5: herbicidal effect by foliage application, plastic box (Table 20, symbol H); type: in vivo, barnyard grass (Echinochloa crus-galli); details: foliage application, 320 g/ha
Outline: as §1

[32] = system: Italian ryegrass; assay: Test Example 5: herbicidal effect by foliage application, plastic box (Table 20, symbol K); type: in vivo, Italian ryegrass (Lolium multiflorum); details: foliage application, 320 g/ha
Outline: as §1

[33] = evaluated three weeks after application
[34] = amount of applied herbicide 320 g/ha

CCCC(=O)Oc1c(C)nn(C)c(=O)c1-c1c(-c2ccc3c(c2)OCO3)sc2ccccc12 [1-088]
herbicidal effect grade, J: blackgrass ([1]; three weeks after application): 0 (Herbicidal rate of 5% or less (almost no effect))
herbicidal effect grade, Q: false cleavers ([2]; three weeks after application): 0 (Herbicidal rate of 5% or less (almost no effect))
herbicidal effect grade, O: lambsquarters ([3]; three weeks after application): 3 (Herbicidal rate of 40% or more and less than 70%)
herbicidal effect rating, R: persian speedwell [4]: 5 (Herbicidal rate of 90% or more (almost completely withered))
herbicidal effect rating, B: Japanese bulrush [5]: 3 (Herbicidal rate of 40% or more and less than 70%)
herbicidal effect rating, A: late watergrass [6]: 1 (Herbicidal rate of 5% or more and less than 20%)
herbicidal effect grade, N: redroot pigweed ([7]; three weeks after application): 3 (Herbicidal rate of 40% or more and less than 70%)
herbicidal effect grade, P: chickweed ([8]; three weeks after application): 5 (Herbicidal rate of 90% or more (almost completely withered))
herbicidal effect on D (Chinese sprangletop), rating 0-5 ([9]; 320 g/ha): 3 (Herbicidal rate of 40% or more and less than 70%)
herbicidal effect rating, C: oval-leafed pondweed [10]: 4 (Herbicidal rate of 70% or more and less than 90%)
herbicidal effect rating, N: redroot pigweed [11]: 0 (Herbicidal rate of 5% or less (almost no effect))
herbicidal effect rating, K: Italian ryegrass [12]: 1 (Herbicidal rate of 5% or more and less than 20%)
herbicidal effect grade, R: persian speedwell ([13]; three weeks after application): 5 (Herbicidal rate of 90% or more (almost completely withered))
herbicidal effect rating, O: lambsquarters [14]: 3 (Herbicidal rate of 40% or more and less than 70%)
herbicidal effect grade, I: wild oat ([15]; three weeks after application): 0 (Herbicidal rate of 5% or less (almost no effect))
herbicidal effect grade, M: velvetleaf ([16]; three weeks after application): 5 (Herbicidal rate of 90% or more (almost completely withered))
herbicidal effect rating, P: chickweed [17]: 4 (Herbicidal rate of 70% or more and less than 90%)
herbicidal effect rating, J: blackgrass [18]: 0 (Herbicidal rate of 5% or less (almost no effect))
herbicidal effect grade, L: windgrass ([19]; three weeks after application): 0 (Herbicidal rate of 5% or less (almost no effect))
herbicidal effect on E (rice flat sedge), rating 0-5 ([20]; 320 g/ha): 5 (Herbicidal rate of 90% or more (almost completely withered))
herbicidal effect rating, L: windgrass [21]: 0 (Herbicidal rate of 5% or less (almost no effect))
herbicidal effect on H (barnyard grass), rating 0-5 ([22]; 320 g/ha): 5 (Herbicidal rate of 90% or more (almost completely withered))
herbicidal effect rating, F: southern crabgrass [23]: 3 (Herbicidal rate of 40% or more and less than 70%)
herbicidal effect grade, G: green foxtail ([24]; three weeks after application): 4 (Herbicidal rate of 70% or more and less than 90%)
herbicidal effect rating, I: wild oat [25]: 0 (Herbicidal rate of 5% or less (almost no effect))
herbicidal effect rating, G: green foxtail [26]: 4 (Herbicidal rate of 70% or more and less than 90%)
herbicidal effect rating, M: velvetleaf [27]: 0 (Herbicidal rate of 5% or less (almost no effect))
herbicidal effect rating, H: barnyard grass [28]: 4 (Herbicidal rate of 70% or more and less than 90%)
herbicidal effect rating, Q: false cleavers [29]: 0 (Herbicidal rate of 5% or less (almost no effect))
herbicidal effect grade, F: southern crabgrass ([30]; three weeks after application): 3 (Herbicidal rate of 40% or more and less than 70%)
herbicidal effect grade, H: barnyard grass ([31]; three weeks after application): 3 (Herbicidal rate of 40% or more and less than 70%)
herbicidal effect grade, K: Italian ryegrass ([32]; three weeks after application): 3 (Herbicidal rate of 40% or more and less than 70%)

CCCC(=O)Oc1c(C)nn(C)c(=O)c1-c1c(-c2ccc3c(c2)OCCO3)sc2ccc(Cl)cc12 [2-128]
herbicidal effect on J: blackgrass [1, 33]: 0 (Herbicidal rate of 5% or less (almost no effect))
herbicidal effect on Q: false cleavers [2, 33]: 0 (Herbicidal rate of 5% or less (almost no effect))
herbicidal effect on O: lambsquarters [3, 33]: 1 (Herbicidal rate of 5% or more and less than 20%)
R: persian speedwell, herbicidal effect rating [4]: 5 (Herbicidal rate of 90% or more (almost completely withered))
herbicidal effect rating, B: Japanese bulrush [5]: 0 (Herbicidal rate of 5% or less (almost no effect))
herbicidal effect rating, A: late watergrass [6]: 0 (Herbicidal rate of 5% or less (almost no effect))
herbicidal effect on N: redroot pigweed [7, 33]: 3 (Herbicidal rate of 40% or more and less than 70%)
herbicidal effect on P: chickweed [8, 33]: 5 (Herbicidal rate of 90% or more (almost completely withered))
herbicidal effect on D: Chinese sprangletop [9, 34]: 0 (Herbicidal rate of 5% or less (almost no effect))
herbicidal effect rating, C: oval-leafed pondweed [10]: 3 (Herbicidal rate of 40% or more and less than 70%)
N: redroot pigweed, herbicidal effect rating [11]: 0 (Herbicidal rate of 5% or less (almost no effect))
K: Italian ryegrass, herbicidal effect rating [12]: 0 (Herbicidal rate of 5% or less (almost no effect))
herbicidal effect on R: persian speedwell [13, 33]: 5 (Herbicidal rate of 90% or more (almost completely withered))
O: lambsquarters, herbicidal effect rating [14]: 0 (Herbicidal rate of 5% or less (almost no effect))
herbicidal effect on I: wild oat [15, 33]: 0 (Herbicidal rate of 5% or less (almost no effect))
herbicidal effect on M: velvetleaf [16, 33]: 2 (Herbicidal rate of 20% or more and less than 40%)
P: chickweed, herbicidal effect rating [17]: 1 (Herbicidal rate of 5% or more and less than 20%)
herbicidal effect on L: windgrass [19, 33]: 0 (Herbicidal rate of 5% or less (almost no effect))
herbicidal effect on E: rice flat sedge [20, 34]: 0 (Herbicidal rate of 5% or less (almost no effect))
L: windgrass, herbicidal effect rating [21]: 0 (Herbicidal rate of 5% or less (almost no effect))
herbicidal effect on H: barnyard grass [22, 34]: 3 (Herbicidal rate of 40% or more and less than 70%)
F: southern crabgrass, herbicidal effect rating [23]: 0 (Herbicidal rate of 5% or less (almost no effect))
herbicidal effect on G: green foxtail [24, 33]: 0 (Herbicidal rate of 5% or less (almost no effect))
I: wild oat, herbicidal effect rating [25]: 0 (Herbicidal rate of 5% or less (almost no effect))
G: green foxtail, herbicidal effect rating [26]: 0 (Herbicidal rate of 5% or less (almost no effect))
M: velvetleaf, herbicidal effect rating [27]: 0 (Herbicidal rate of 5% or less (almost no effect))
H: barnyard grass, herbicidal effect rating [28]: 0 (Herbicidal rate of 5% or less (almost no effect))
Q: false cleavers, herbicidal effect rating [29]: 0 (Herbicidal rate of 5% or less (almost no effect))
herbicidal effect on F: southern crabgrass [30, 33]: 0 (Herbicidal rate of 5% or less (almost no effect))
herbicidal effect on H: barnyard grass [31, 33]: 0 (Herbicidal rate of 5% or less (almost no effect))
herbicidal effect on K: Italian ryegrass [32, 33]: 0 (Herbicidal rate of 5% or less (almost no effect))
